The source made the active and inactive calls. The calls are words filed in the database; no cut-off is given here.
Tests used:
[1] = tested on: A2780; experiment: Cytotoxicity against human A2780 cells assessed as reduction in cell growth measured after 72 hrs by MTS assay; format: functional, cell-based; conditions: A2780, 72 h
[2] = tested on: K-562R; experiment: Cytotoxicity against human K562R cells assessed as reduction in cell growth measured after 72 hrs by MTS assay; format: functional, cell-based
[3] = Cytotoxicity against human A2780R cells assessed as reduction in cell growth measured after 72 hrs by MTS assay; format: functional, cell-based
[4] = tested on: JIMT-1; experiment: Cytotoxicity against human JIMT1 cells assessed as reduction in cell growth measured after 72 hrs by MTS assay; format: functional, cell-based; conditions: JIMT-1, 72 h
[5] = tested on: MIA PaCa-2; experiment: Cytotoxicity against human MIAPaCa2 cells assessed as reduction in cell growth measured after 72 hrs by MTS assay; format: functional, cell-based; conditions: MIA PaCa-2, 72 h
[6] = Inhibition of sheep brain tubulin polymerization in presence of GTP by DAPI based fluorimetric method; design: species or system Ovis aries
[7] = tested on: K562; experiment: Cytotoxicity against human K562 cells assessed as reduction in cell growth measured after 72 hrs by MTS assay; format: functional, cell-based; conditions: K562, 72 h
[8] = tested on: HCT-116; experiment: Cytotoxicity against human HCT116 cells assessed as reduction in cell growth measured after 72 hrs by MTS assay; format: functional, cell-based
[9] = tested on: HCT-116; experiment: Cell cycle arrest in human HCT116 cells assessed as accumulation at S phase at 1 nM incubated for 24 hrs by propidium iodide staining based flow cytometry (reference value: 40%); format: functional
[10] = tested on: HCT-116; experiment: Cell cycle arrest in human HCT116 cells assessed as accumulation at G2/M phase at 5 nM incubated for 24 hrs by propidium iodide staining based flow cytometry (reference value: 23%); format: functional
[11] = tested on: HCT-116; experiment: Cell cycle arrest in human HCT116 cells assessed as accumulation at G2/M phase incubated for 24 hrs by propidium iodide staining based flow cytometry; format: functional
[12] = tested on: HUVEC; experiment: Antiproliferative activity against human HUVEC assessed as growth inhibition up to 5 hrs; format: cell-based
[13] = tested on: HCT-116; experiment: Cell cycle arrest in human HCT116 cells assessed as accumulation at G2/M phase at 10 nM incubated for 24 hrs by propidium iodide staining based flow cytometry (reference value: 23%); format: functional
[14] = tested on: HCT-116; experiment: Cell cycle arrest in human HCT116 cells assessed as accumulation at G0/G1 phase at 5 nM incubated for 24 hrs by propidium iodide staining based flow cytometry (reference value: 37%); format: functional
[15] = tested on: HCT-116; experiment: Cell cycle arrest in human HCT116 cells assessed as accumulation at S phase at 10 nM incubated for 24 hrs by propidium iodide staining based flow cytometry (reference value: 40%); format: functional
[16] = tested on: HCT-116; experiment: Cell cycle arrest in human HCT116 cells assessed as accumulation at G0/G1 phase at 10 nM incubated for 24 hrs by propidium iodide staining based flow cytometry (reference value: 37%); format: functional
[17] = Antiproliferative activity against HUVEC assessed as growth inhibition after 72 hrs; format: cell-based; conditions: human, HUVEC cells
[18] = tested on: HCT-116; experiment: Induction of apoptosis in human HCT116 cells assessed as caspase-3/7 activation at 0.1 to 10 nM after 24 hrs by Apo-one caspase 3/7 assay; format: functional, cell-based
[19] = tested on: HCT-116; experiment: Cell cycle arrest in human HCT116 cells assessed as accumulation at G2/M phase at 1 nM incubated for 24 hrs by propidium iodide staining based flow cytometry (reference value: 23%); format: functional
[20] = tested on: HCT-116; experiment: Cell cycle arrest in human HCT116 cells assessed as accumulation at S phase at 5 nM incubated for 24 hrs by propidium iodide staining based flow cytometry (reference value: 40%); format: functional
[21] = tested on: HCT-116; experiment: Cell cycle arrest in human HCT116 cells assessed as accumulation at G0/G1 phase at 1 nM incubated for 24 hrs by propidium iodide staining based flow cytometry (reference value: 37%); format: functional
[22] = tested on: HUVEC; experiment: Antivascular activity against HUVEC assessed as reduction in capillary like tube formation by measuring disruption of cell network integrity at 10 nM measured up to 5 hrs by matrigel method relative to control; format: functional, cell-based; conditions: Homo sapiens
[23] = Homo sapiens, HCT-116, 72 h, read-out: IC50

| IC50 ([6]; read-out: IC50) [nM] | IC50 [6] | SMILES | IC50 [8, 23] [nM] | other results |
| --- | --- | --- | --- | --- |
| 1190 |  | CN(c1ccc2c(ccn2C)c1)c1nc(Cl)nc2ccccc12 | 0.2 | IC50 [1]: 0.24 nM; IC50 [2]: 1.77 nM; IC50 [3]: 2.34 nM; IC50 [4]: 0.52 nM; IC50 [5]: 0.62 nM; IC50 [7]: 0.77 nM |
|  | Not Active | Cc1cc(N(C)c2ccc3c(c2)c2cc([N+](=O)[O-])ccc2n3C)c2ccccc2n1 |  | IC50 ([8]; hct-116): Not Active |
| 1480 |  | COc1cccc2c(N(C)c3ccc4c(c3)c3ccccc3n4C)cc(C)nc12 | 21.6 |  |
|  | Not Active | CN(c1ccc2c(c1)c1ccccc1n2C)c1cc(C(F)(F)F)nc2ccccc12 | 847 |  |
| 900 |  | COc1ccc(N(C)c2cc(C)nc3ccccc23)nc1N | 1.73 |  |
|  | Not Active | Cc1cc(N(C)c2ccc3c(c2)c2ccccc2n3Cc2ccccc2)c2ccccc2n1 |  | IC50 ([8]; hct-116): Not Active |
|  | Not Active | Cn1c2ccccc2c2cc([N+](C)(C)c3ccnc4ccccc34)ccc21.[I-] | 891 |  |
| 1340 |  | Cc1cc(N(C)c2ccc3c(ccn3C)c2)c2ccccc2n1 | 2 |  |
| 1160 |  | CN(c1ccc2c(c1)c1ccccc1n2C)c1cc(Cl)nc2ccccc12 | 16.7 |  |
|  | Not Active | COc1ccc(N(C)c2cc(C)nc3ccccc23)nc1Cl | 462 |  |
| 1130 |  | Cc1cc(N(C)c2ccc3c(c2)c2ccccc2n3C)c2ccccc2n1 | 0.07 | Activity [9]: 40%; IC50 [1]: 0.53 nM; Activity [10]: 80%; IC50 [2]: 0.28 nM; IC50 [3]: 0.54 nM; Activity [11]: Dose-dependent effect; IC50 [4]: 0.36 nM; IC50 [5]: 0.47 nM; Activity [12]: Non-Toxic; Activity [13]: 82%; Activity [14]: 8%; Activity [15]: 18%; Activity [16]: 0%; GI50 at 72 h [17]: 3.23 nM; Activity [18]: Dose-dependent effect; Activity [19]: 25%; Activity [20]: 12%; Activity [21]: 35%; Activity [22]: Active; IC50 [7]: 0.6 nM |
|  | Not Active | COc1ccc(N(C)c2cc(C)nc3ccccc23)nc1O | 205 |  |
|  | Not Active | Cc1cc(N(C)c2ccc3c(c2)c2cc(C(C)O)ccc2n3C)c2ccccc2n1 (stereo not given) | 219 |  |
| 3800 |  | Cc1nc(N(C)c2ccc3c(c2)c2ccccc2n3C)c2ccccc2n1 | 2.4 |  |
| 2760 |  | Cc1cc(N(C)c2ccc3c(c2)c2cc(N)ccc2n3C)c2ccccc2n1 | 2.88 |  |
|  | Not Active | CCn1c2ccccc2c2cc(N(C)c3cc(C)nc4ccccc34)ccc21 | 186 |  |
| 2500 |  | CN(c1ccc2c(ccn2C)c1)c1cc(C(F)(F)F)nc2ccccc12 | 3.28 |  |
|  | Not Active | CN(c1ccc2c(c1)c1ccccc1n2C)c1ccnc2ccccc12 | 943 |  |
|  | Not Active | Cc1cc(N(C)c2ccc3[nH]c4ccccc4c3c2)c2ccccc2n1 |  | IC50 ([8]; hct-116): Not Active |
|  | Not Active | Cc1cc(N(C)c2ccc3oc4ccccc4c3c2)c2ccccc2n1 | 844 |  |
| 5760 |  | Cc1cc(N(C)c2ccc3c(c2)c2ccccc2n3C)c2cc(N)ccc2n1 | 24.5 |  |
|  | Not Active | Cc1cc(N(C)c2ccc3c(c2)c2ccccc2n3C)ccn1 | 879 |  |
| 4080 |  | Cc1cc(N(C)c2ccc3c(c2)OCCO3)c2ccccc2n1 | 20.7 |  |
| 3140 |  | CN(c1ccc2c(c1)c1ccccc1n2C)c1nc(Cl)nc2ccccc12 | 1.06 |  |
|  | Not Active | C=C(c1cc(N(C)c2cc(C)nc3ccccc23)ccc1OC)c1cc(C)nc2ccccc12 | 969 |  |
|  | Not Active | COc1ccc2c(ccn2-c2cc(C)nc3ccccc23)c1 | 482 |  |
| 1240 |  | Cc1cc(N(C)c2ccc3c(c2)c2ccccc2n3C)c2cccc(O)c2n1 | 50.6 |  |
|  | Not Active | Cc1cc(N(C)c2ccc3c(c2)c2ccccc2n3C)c2cc([N+](=O)[O-])ccc2n1 | 623 |  |
| 1400 |  | CN(c1ccc2c(c1)c1ccccc1n2C)c1cc(C#N)nc2ccccc12 | 12 |  |

| SMILES | IC50 ([6]; read-out: IC50) [nM] | IC50 [6] | IC50 [8, 23] [nM] | other results |
| --- | --- | --- | --- | --- |
| C=C(c1ccc(OC)c(O)c1)c1cc(OC)c(OC)c(OC)c1 | 1000 |  | 1.8 | IC50 [1]: 3.01 nM; IC50 [3]: 2.66 nM; IC50 [4]: 3.08 nM; IC50 [5]: 5 nM |

Source: ChEMBL document CHEMBL4390655, “N,N-bis-heteroaryl methylamines: Potent anti-mitotic and highly cytotoxic agents” (Eur J Med Chem, 2019)
